Source: article PMC6522912, “Evaluation of the published kinase inhibitor set to identify multiple inhibitors of bacterial ATP-dependent mur ligases” (Journal of Enzyme Inhibition and Medicinal Chemistry, 2019)

What follows are compounds tested against E. coli MurD (Escherichia coli, UniProt P14900) (assay: biochemical). Conditions: not given.
In short: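 Orthophosphate released by E. coli MurD quantified by malachite green (Biomol green) absorbance at 650 nm after 15 min at 37 °C. Residual activity relative to DMSO-only controls.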

E. coli MurD, sequence (P14900 whole entry): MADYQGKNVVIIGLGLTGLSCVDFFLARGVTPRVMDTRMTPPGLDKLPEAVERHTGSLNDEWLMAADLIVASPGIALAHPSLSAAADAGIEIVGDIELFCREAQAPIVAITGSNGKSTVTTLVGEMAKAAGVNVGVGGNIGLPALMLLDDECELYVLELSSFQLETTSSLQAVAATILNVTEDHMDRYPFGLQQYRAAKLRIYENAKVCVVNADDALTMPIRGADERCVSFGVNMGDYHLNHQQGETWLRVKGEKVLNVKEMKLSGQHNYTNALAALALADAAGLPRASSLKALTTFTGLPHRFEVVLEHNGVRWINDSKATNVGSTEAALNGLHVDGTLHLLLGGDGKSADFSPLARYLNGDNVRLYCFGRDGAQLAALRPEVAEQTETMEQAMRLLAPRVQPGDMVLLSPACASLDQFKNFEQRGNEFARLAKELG

Compound | RA [%] at 100 µM MurD | RA (%) MurD
Cc1ccc(O)cc1Nc1ccnc2cc(-c3ccccn3)ccc12 [GW440139B] | 73 | –
CNC(=O)c1cncc(C=Cc2ccccc2C)c1 [Compound 8] | – | 91%
Cc1cc(O)cc(C)c1C=Cc1cncc(C(N)=O)c1 [Compound 14] | – | 89%
SB-739245-AC | 99% | –
CN(C)CCOc1ccc(-c2nc(-c3ccncc3)c(-c3ccc4c(c3)CC/C4=N\O)[nH]2)cc1 [SB-590885-AAD] | 100 | –

Same assay, conditions: 0.25 h, Table S1, PKIS screening; read-out: RA [%] at 100 µM MurD

Compound | remaining activity at 100 µM
c1ccc(-c2n[nH]cc2-c2ccnc(-c3ccc(OCCn4ccnc4)cc3)c2)nc1 [GW711782X] | 74%
CCn1c(-c2nonc2N)nc2c(C#CC(C)(C)O)ncc(OCC3CCNCC3)c21 [GSK554170A] | 89%
Cc1nnc(-c2ccc(C)c(-c3ccc(C(=O)Nc4cccc(C#N)c4)cc3)c2)o1 [GW607117X] | 100%
NS(=O)(=O)c1ccc(NN=C2C(=O)Nc3cccc(CCc4ccncc4)c32)cc1 [GW352430A] | 90%
COc1cc2ncnc(Nc3ccc(C)c(O)c3)c2cc1OC [GW410563A] | 92%
CC1(C)CC(n2cnc(-c3ccc(F)cc3)c2-c2ccnc(N)n2)CC(C)(C)N1 [SB-221466] | 93%
COc1cc2ncn(-c3cc(OCc4ccccc4C(F)(F)F)c(C(=O)N(C)C)s3)c2cc1OC [GSK1030062A] | 76%
CNC(=O)c1cncc(/C=C/c2c(Cl)cccc2Cl)c1 [GW445014X] | 80%
Fc1ccc(-c2nn3ccccc3c2-c2ccncc2)cc1 [GW434756X] | 68%
COC(=O)c1ccc2c(c1)C(=Cc1cc(Br)c(O)c(Br)c1)C(=O)N2 [GW405841X] | 82%
Cc1ccc2c(c1)C(=NNc1ccc(S(N)(=O)=O)cc1)C(=O)N2 [GW275944X] | 87%
[O-][S+]1CCN(Cc2ccc(-c3ccc4ncnc(Nc5ccc(OCc6ccccc6)c(F)c5)c4c3)o2)CC1 [GW576924A] | 85%
CS(=O)(=O)Nc1ccc(-c2ccc3c(NC(=O)C4CC4)n[nH]c3c2)cc1 [SB-742865] | 80%
NS(=O)(=O)c1ccc(NN=C2C(=O)Nc3ccc(C(=O)NCc4ccncc4)cc32)cc1 [GW300657X] | 96%
COc1ccc(COc2ccc(Cc3cnc(N)nc3N)cc2OC)cc1 [GW632580X] | 89%
Cc1nnc(-c2ccc(C)c(-c3ccc(C(=O)NCc4ccc(Cl)cc4)cc3)c2)o1 [GW708893X] | 100%
O=C1Nc2ccccc2/C1=C1\CCc2cc(O)ccc21 [GR105659X] | 100%
CNC(=O)c1cncc(/C=C/c2ccccc2C)c1 [GW445015X] | 91%
CCc1nccc2c1nc(-c1nonc1N)n2CC [SB-751148] | 96%

Each compound was assayed against E. coli MurC (Escherichia coli, UniProt P17952) (assay: Malachite green inhibition assay, MurC). Conditions: 0.25 h, Table S1, PKIS screening; read-out: RA [%] at 100 µM MurC.
E. coli MurC, sequence (P17952 whole entry): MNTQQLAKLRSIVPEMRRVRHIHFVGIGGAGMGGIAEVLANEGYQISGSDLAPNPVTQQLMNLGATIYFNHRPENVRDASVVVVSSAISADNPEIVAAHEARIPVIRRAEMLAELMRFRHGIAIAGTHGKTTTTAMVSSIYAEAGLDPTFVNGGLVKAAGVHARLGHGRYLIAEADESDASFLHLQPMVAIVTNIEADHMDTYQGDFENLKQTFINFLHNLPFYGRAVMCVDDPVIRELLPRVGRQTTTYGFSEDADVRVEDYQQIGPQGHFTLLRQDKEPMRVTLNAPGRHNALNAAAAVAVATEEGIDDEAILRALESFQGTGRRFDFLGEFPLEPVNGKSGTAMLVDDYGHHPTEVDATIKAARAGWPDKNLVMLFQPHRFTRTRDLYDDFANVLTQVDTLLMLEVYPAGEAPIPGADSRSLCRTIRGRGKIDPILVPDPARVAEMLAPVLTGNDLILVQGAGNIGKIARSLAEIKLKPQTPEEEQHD
Format: biochemical

Compound | remaining activity at 100 µM
c1ccc(-c2n[nH]cc2-c2ccnc(-c3ccc(OCCn4ccnc4)cc3)c2)nc1 [GW711782X] | 100%
CCn1c(-c2nonc2N)nc2c(C#CC(C)(C)O)ncc(OCC3CCNCC3)c21 [GSK554170A] | 85%
Cc1nnc(-c2ccc(C)c(-c3ccc(C(=O)Nc4cccc(C#N)c4)cc3)c2)o1 [GW607117X] | 72%
NS(=O)(=O)c1ccc(NN=C2C(=O)Nc3cccc(CCc4ccncc4)c32)cc1 [GW352430A] | 64%
COc1cc2ncnc(Nc3ccc(C)c(O)c3)c2cc1OC [GW410563A] | 60%
CC1(C)CC(n2cnc(-c3ccc(F)cc3)c2-c2ccnc(N)n2)CC(C)(C)N1 [SB-221466] | 91%
COc1cc2ncn(-c3cc(OCc4ccccc4C(F)(F)F)c(C(=O)N(C)C)s3)c2cc1OC [GSK1030062A] | 68%
CNC(=O)c1cncc(/C=C/c2c(Cl)cccc2Cl)c1 [GW445014X] | 81%
Fc1ccc(-c2nn3ccccc3c2-c2ccncc2)cc1 [GW434756X] | 74%
COC(=O)c1ccc2c(c1)C(=Cc1cc(Br)c(O)c(Br)c1)C(=O)N2 [GW405841X] | 93%
Cc1ccc2c(c1)C(=NNc1ccc(S(N)(=O)=O)cc1)C(=O)N2 [GW275944X] | 92%
[O-][S+]1CCN(Cc2ccc(-c3ccc4ncnc(Nc5ccc(OCc6ccccc6)c(F)c5)c4c3)o2)CC1 [GW576924A] | 39%
CS(=O)(=O)Nc1ccc(-c2ccc3c(NC(=O)C4CC4)n[nH]c3c2)cc1 [SB-742865] | 63%
NS(=O)(=O)c1ccc(NN=C2C(=O)Nc3ccc(C(=O)NCc4ccncc4)cc32)cc1 [GW300657X] | 75%
COc1ccc(COc2ccc(Cc3cnc(N)nc3N)cc2OC)cc1 [GW632580X] | 88%
Cc1nnc(-c2ccc(C)c(-c3ccc(C(=O)NCc4ccc(Cl)cc4)cc3)c2)o1 [GW708893X] | 100%
O=C1Nc2ccccc2/C1=C1\CCc2cc(O)ccc21 [GR105659X] | 85%
CNC(=O)c1cncc(/C=C/c2ccccc2C)c1 [GW445015X] | 100%
CCc1nccc2c1nc(-c1nonc1N)n2CC [SB-751148] | 75%

Same assay, conditions: Table S1, PKIS screening

Compound | RA [%] at 100 µM MurC
Cc1ccc(O)cc1Nc1ccnc2cc(-c3ccccn3)ccc12 [GW440139B] | 73%
SB-739245-AC | 61%
CN(C)CCOc1ccc(-c2nc(-c3ccncc3)c(-c3ccc4c(c3)CC/C4=N\O)[nH]2)cc1 [SB-590885-AAD] | 74%

Same assay, conditions: Table S3, aza stilbene compounds

Compound | RA (%) MurC
CNC(=O)c1cncc(C=Cc2ccccc2C)c1 [Compound 8] | 100%
Cc1cc(O)cc(C)c1C=Cc1cncc(C(N)=O)c1 [Compound 14] | 89%

These compounds were tested against E. coli MurF (Escherichia coli, UniProt P11880) (assay: biochemical). Conditions: 0.25 h, Table S1, PKIS screening; read-out: RA [%] at 100 µM MurF.
E. coli MurF, sequence (P11880 whole entry): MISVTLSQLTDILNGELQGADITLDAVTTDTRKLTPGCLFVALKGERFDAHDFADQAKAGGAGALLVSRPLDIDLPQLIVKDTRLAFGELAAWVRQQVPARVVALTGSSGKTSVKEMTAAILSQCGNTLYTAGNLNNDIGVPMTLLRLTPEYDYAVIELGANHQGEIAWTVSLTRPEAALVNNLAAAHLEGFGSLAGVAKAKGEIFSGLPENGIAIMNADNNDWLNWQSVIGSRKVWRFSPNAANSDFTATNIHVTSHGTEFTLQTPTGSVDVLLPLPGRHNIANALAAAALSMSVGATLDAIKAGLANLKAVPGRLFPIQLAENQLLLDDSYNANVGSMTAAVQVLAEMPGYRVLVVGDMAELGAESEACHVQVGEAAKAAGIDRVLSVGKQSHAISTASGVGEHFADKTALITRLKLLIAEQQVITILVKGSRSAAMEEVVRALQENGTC

Compound | remaining activity at 100 µM
c1ccc(-c2n[nH]cc2-c2ccnc(-c3ccc(OCCn4ccnc4)cc3)c2)nc1 [GW711782X] | 93%
CCn1c(-c2nonc2N)nc2c(C#CC(C)(C)O)ncc(OCC3CCNCC3)c21 [GSK554170A] | 96%
Cc1nnc(-c2ccc(C)c(-c3ccc(C(=O)Nc4cccc(C#N)c4)cc3)c2)o1 [GW607117X] | 90%
NS(=O)(=O)c1ccc(NN=C2C(=O)Nc3cccc(CCc4ccncc4)c32)cc1 [GW352430A] | 37%
COc1cc2ncnc(Nc3ccc(C)c(O)c3)c2cc1OC [GW410563A] | 100%
CC1(C)CC(n2cnc(-c3ccc(F)cc3)c2-c2ccnc(N)n2)CC(C)(C)N1 [SB-221466] | 100%
COc1cc2ncn(-c3cc(OCc4ccccc4C(F)(F)F)c(C(=O)N(C)C)s3)c2cc1OC [GSK1030062A] | 63%
CNC(=O)c1cncc(/C=C/c2c(Cl)cccc2Cl)c1 [GW445014X] | 77%
Fc1ccc(-c2nn3ccccc3c2-c2ccncc2)cc1 [GW434756X] | 94%
COC(=O)c1ccc2c(c1)C(=Cc1cc(Br)c(O)c(Br)c1)C(=O)N2 [GW405841X] | 75%
Cc1ccc2c(c1)C(=NNc1ccc(S(N)(=O)=O)cc1)C(=O)N2 [GW275944X] | 83%
[O-][S+]1CCN(Cc2ccc(-c3ccc4ncnc(Nc5ccc(OCc6ccccc6)c(F)c5)c4c3)o2)CC1 [GW576924A] | 58%
CS(=O)(=O)Nc1ccc(-c2ccc3c(NC(=O)C4CC4)n[nH]c3c2)cc1 [SB-742865] | 92%
NS(=O)(=O)c1ccc(NN=C2C(=O)Nc3ccc(C(=O)NCc4ccncc4)cc32)cc1 [GW300657X] | 85%
COc1ccc(COc2ccc(Cc3cnc(N)nc3N)cc2OC)cc1 [GW632580X] | 99%
Cc1nnc(-c2ccc(C)c(-c3ccc(C(=O)NCc4ccc(Cl)cc4)cc3)c2)o1 [GW708893X] | 94%
O=C1Nc2ccccc2/C1=C1\CCc2cc(O)ccc21 [GR105659X] | 100%
CNC(=O)c1cncc(/C=C/c2ccccc2C)c1 [GW445015X] | 85%
CCc1nccc2c1nc(-c1nonc1N)n2CC [SB-751148] | 88%

Same assay, conditions: Table S1, PKIS screening

Compound | RA [%] at 100 µM MurF
Cc1ccc(O)cc1Nc1ccnc2cc(-c3ccccn3)ccc12 [GW440139B] | 66%
SB-739245-AC | 95%
CN(C)CCOc1ccc(-c2nc(-c3ccncc3)c(-c3ccc4c(c3)CC/C4=N\O)[nH]2)cc1 [SB-590885-AAD] | 100%

Same assay, conditions: Table S3, aza stilbene compounds

Compound | RA (%) MurF
CNC(=O)c1cncc(C=Cc2ccccc2C)c1 [Compound 8] | 85%
Cc1cc(O)cc(C)c1C=Cc1cncc(C(N)=O)c1 [Compound 14] | 75%
